Source: PubChem BioAssay AID2060615 (Molecular Pharmacology Branch, DTP, NCI, 2025)

Tested on: 496974-208-R-J2-PDC complex spheroids, growth % test/control
Test: Anticancer human tumor 496974-208-R-J2-PDC patient-derived pancreatic carcinoma cell line growth inhibition [CLK]
Settings: for IC50: curve of first compound; for viability, T/C: stronger effect = lower value
In short: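 Patient-derived tumor cells grown as complex spheroids with HUVEC endothelial cells and mesenchymal stem cells, treated with drug combinations. Concentrations descend in half-log steps from near clinical Cmax, or from 10 microM if Cmax unknown.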
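Also: spheroids exposed to the drugs for 7 days before readout.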
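For viability, T/C in this document: 100% = DMSO vehicle control wells.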

Question: How did the IC50 (second compound 0.0316 µM) turn out when `NC(=O)C(=Cn1cnc(-c2cc(C(F)(F)F)cc(C(F)(F)F)c2)n1)c1cncnc1` + CN1CCN(c2cc(C(=O)Nc3cc4cc(-c5cnn(C)c5)ccc4cn3)ccn2)CC1 was run?
Answer: The IC50 was 80.4 nM.

Question: What about the IC50 (second compound 0.1 µM) of the same compound?
Answer: The IC50 was 42 nM.

Question: And the IC50 (second compound 0.316 µM)?
Answer: Its IC50 is less than 9.49 nM.

Question: What about the IC50 (second compound 1 µM) of the same compound?
Answer: The IC50 was less than 9.49 nM.

Question: What about the IC50 (second compound 3.16 µM) of the same compound?
Answer: The IC50 was less than 9.49 nM.

Question: And the IC50 (second compound 10 µM)?
Answer: The IC50 was less than 9.49 nM.

Question: What about the viability, T/C (second compound 0.0316 µM, first compound 0.00949 µM) of the same compound?
Answer: Its viability, T/C is 90.6%.

Question: And the viability, T/C (second compound 0.0316 µM, first compound 0.03 µM)?
Answer: The viability, T/C was 67.2%.

Question: And the viability, T/C (second compound 0.0316 µM, first compound 0.0949 µM)?
Answer: Its viability, T/C is 52.1%.

Question: And the viability, T/C (second compound 0.0316 µM, first compound 0.3 µM)?
Answer: The viability, T/C was 21.3%.

Question: What about the viability, T/C (second compound 0.0316 µM, first compound 0.949 µM) of the same compound?
Answer: The viability, T/C was 16.9%.

Question: And the viability, T/C (second compound 0.0316 µM, first compound 3 µM)?
Answer: Its viability, T/C is 11.8%.

Question: What about the viability, T/C (second compound 0.1 µM, first compound 0.00949 µM) of the same compound?
Answer: The viability, T/C was 61.6%.

Question: And the viability, T/C (second compound 0.1 µM, first compound 0.03 µM)?
Answer: Its viability, T/C is 56.5%.

Question: And the viability, T/C (second compound 0.1 µM, first compound 0.0949 µM)?
Answer: The viability, T/C was 35.2%.

Question: And the viability, T/C (second compound 0.1 µM, first compound 0.3 µM)?
Answer: Its viability, T/C is 12.4%.

Question: And the viability, T/C (second compound 0.1 µM, first compound 0.949 µM)?
Answer: The viability, T/C was 7.44%.

Question: What about the viability, T/C (second compound 0.1 µM, first compound 3 µM) of the same compound?
Answer: Its viability, T/C is 2.92%.

Question: And the viability, T/C (second compound 0.316 µM, first compound 0.00949 µM)?
Answer: Its viability, T/C is 2.46%.

Question: And the viability, T/C (second compound 0.316 µM, first compound 0.03 µM)?
Answer: The viability, T/C was 1.91%.

Question: And the viability, T/C (second compound 0.316 µM, first compound 0.0949 µM)?
Answer: Its viability, T/C is 3.26%.

Question: What about the viability, T/C (second compound 0.316 µM, first compound 0.3 µM) of the same compound?
Answer: The viability, T/C was 0.41%.

Question: What about the viability, T/C (second compound 0.316 µM, first compound 0.949 µM) of the same compound?
Answer: The viability, T/C was 0.31%.

Question: And the viability, T/C (second compound 0.316 µM, first compound 3 µM)?
Answer: The viability, T/C was 0.19%.

Question: And the viability, T/C (second compound 1 µM, first compound 0.00949 µM)?
Answer: Its viability, T/C is 0.39%.

Question: What about the viability, T/C (second compound 1 µM, first compound 0.03 µM) of the same compound?
Answer: The viability, T/C was 0.4%.

Question: What about the viability, T/C (second compound 1 µM, first compound 0.0949 µM) of the same compound?
Answer: The viability, T/C was 0.64%.

Question: And the viability, T/C (second compound 1 µM, first compound 0.3 µM)?
Answer: Its viability, T/C is 0.44%.

Question: What about the viability, T/C (second compound 1 µM, first compound 0.949 µM) of the same compound?
Answer: Its viability, T/C is 2.17%.

Question: What about the viability, T/C (second compound 1 µM, first compound 3 µM) of the same compound?
Answer: The viability, T/C was 0.11%.

Question: What about the viability, T/C (second compound 3.16 µM, first compound 0.00949 µM) of the same compound?
Answer: The viability, T/C was 0.34%.

Question: What about the viability, T/C (second compound 3.16 µM, first compound 0.03 µM) of the same compound?
Answer: Its viability, T/C is 0.4%.

Question: And the viability, T/C (second compound 3.16 µM, first compound 0.0949 µM)?
Answer: The viability, T/C was 0.41%.

Question: And the viability, T/C (second compound 3.16 µM, first compound 0.3 µM)?
Answer: Its viability, T/C is 0.37%.

Question: And the viability, T/C (second compound 3.16 µM, first compound 0.949 µM)?
Answer: The viability, T/C was 0.26%.

Question: What about the viability, T/C (second compound 3.16 µM, first compound 3 µM) of the same compound?
Answer: The viability, T/C was 0.13%.

Question: What about the viability, T/C (second compound 10 µM, first compound 0.00949 µM) of the same compound?
Answer: The viability, T/C was 0.25%.

Question: What about the viability, T/C (second compound 10 µM, first compound 0.03 µM) of the same compound?
Answer: Its viability, T/C is 0.23%.

Question: What about the viability, T/C (second compound 10 µM, first compound 0.0949 µM) of the same compound?
Answer: Its viability, T/C is 1.86%.

Question: And the viability, T/C (second compound 10 µM, first compound 0.3 µM)?
Answer: Its viability, T/C is 0.31%.

Question: What about the viability, T/C (second compound 10 µM, first compound 0.949 µM) of the same compound?
Answer: Its viability, T/C is 0.24%.

Question: And the viability, T/C (second compound 10 µM, first compound 3 µM)?
Answer: Its viability, T/C is 0.69%.

Question: With `Nc1ccccc1NC(=O)c1ccc(CNC(=O)OCc2cccnc2)cc1` + CN1CCN(c2cc(C(=O)Nc3cc4cc(-c5cnn(C)c5)ccc4cn3)ccn2)CC1 as the compound, how does the IC50 (second compound 0.0316 µM) read?
Answer: Its IC50 is 4300 nM.

Question: What about the IC50 (second compound 0.1 µM) of the same compound?
Answer: Its IC50 is 4370 nM.

Question: What about the IC50 (second compound 0.316 µM) of the same compound?
Answer: The IC50 was less than 31.6 nM.

Question: And the IC50 (second compound 1 µM)?
Answer: The IC50 was less than 31.6 nM.

Question: What about the IC50 (second compound 3.16 µM) of the same compound?
Answer: The IC50 was less than 31.6 nM.

Question: What about the IC50 (second compound 10 µM) of the same compound?
Answer: The IC50 was less than 31.6 nM.

Question: What about the viability, T/C (second compound 0.0316 µM, first compound 0.0316 µM) of the same compound?
Answer: The viability, T/C was 105%.

Question: And the viability, T/C (second compound 0.0316 µM, first compound 0.1 µM)?
Answer: The viability, T/C was 101%.

Question: What about the viability, T/C (second compound 0.0316 µM, first compound 0.316 µM) of the same compound?
Answer: The viability, T/C was 94.3%.

Question: And the viability, T/C (second compound 0.0316 µM, first compound 1 µM)?
Answer: Its viability, T/C is 81.4%.

Question: What about the viability, T/C (second compound 0.0316 µM, first compound 3.16 µM) of the same compound?
Answer: Its viability, T/C is 73.2%.

Question: And the viability, T/C (second compound 0.0316 µM, first compound 10 µM)?
Answer: Its viability, T/C is 0.89%.

Question: What about the viability, T/C (second compound 0.1 µM, first compound 0.0316 µM) of the same compound?
Answer: The viability, T/C was 77.5%.

Question: And the viability, T/C (second compound 0.1 µM, first compound 0.1 µM)?
Answer: The viability, T/C was 78.9%.

Question: What about the viability, T/C (second compound 0.1 µM, first compound 0.316 µM) of the same compound?
Answer: The viability, T/C was 80.3%.

Question: What about the viability, T/C (second compound 0.1 µM, first compound 1 µM) of the same compound?
Answer: The viability, T/C was 69.2%.

Question: And the viability, T/C (second compound 0.1 µM, first compound 3.16 µM)?
Answer: The viability, T/C was 69.4%.

Question: What about the viability, T/C (second compound 0.1 µM, first compound 10 µM) of the same compound?
Answer: The viability, T/C was 0.6%.

Question: And the viability, T/C (second compound 0.316 µM, first compound 0.0316 µM)?
Answer: The viability, T/C was 6.28%.

Question: And the viability, T/C (second compound 0.316 µM, first compound 0.1 µM)?
Answer: Its viability, T/C is 4.96%.

Question: What about the viability, T/C (second compound 0.316 µM, first compound 0.316 µM) of the same compound?
Answer: Its viability, T/C is 4.64%.

Question: What about the viability, T/C (second compound 0.316 µM, first compound 1 µM) of the same compound?
Answer: The viability, T/C was 3.64%.

Question: And the viability, T/C (second compound 0.316 µM, first compound 3.16 µM)?
Answer: The viability, T/C was 2.12%.

Question: What about the viability, T/C (second compound 0.316 µM, first compound 10 µM) of the same compound?
Answer: The viability, T/C was 0.13%.

Question: What about the viability, T/C (second compound 1 µM, first compound 0.0316 µM) of the same compound?
Answer: Its viability, T/C is 0.53%.

Question: What about the viability, T/C (second compound 1 µM, first compound 0.1 µM) of the same compound?
Answer: Its viability, T/C is 0.32%.

Question: And the viability, T/C (second compound 1 µM, first compound 0.316 µM)?
Answer: Its viability, T/C is 0.35%.

Question: What about the viability, T/C (second compound 1 µM, first compound 1 µM) of the same compound?
Answer: The viability, T/C was 0.18%.

Question: What about the viability, T/C (second compound 1 µM, first compound 3.16 µM) of the same compound?
Answer: Its viability, T/C is 0.21%.

Question: And the viability, T/C (second compound 1 µM, first compound 10 µM)?
Answer: Its viability, T/C is 0.21%.

Question: And the viability, T/C (second compound 3.16 µM, first compound 0.0316 µM)?
Answer: Its viability, T/C is 0.5%.

Question: What about the viability, T/C (second compound 3.16 µM, first compound 0.1 µM) of the same compound?
Answer: The viability, T/C was 0.4%.

Question: What about the viability, T/C (second compound 3.16 µM, first compound 0.316 µM) of the same compound?
Answer: The viability, T/C was 0.39%.

Question: And the viability, T/C (second compound 3.16 µM, first compound 1 µM)?
Answer: The viability, T/C was 0.21%.

Question: And the viability, T/C (second compound 3.16 µM, first compound 3.16 µM)?
Answer: Its viability, T/C is 0.2%.

Question: And the viability, T/C (second compound 3.16 µM, first compound 10 µM)?
Answer: Its viability, T/C is 1.32%.

Question: And the viability, T/C (second compound 10 µM, first compound 0.0316 µM)?
Answer: The viability, T/C was 0.22%.

Question: What about the viability, T/C (second compound 10 µM, first compound 0.1 µM) of the same compound?
Answer: The viability, T/C was 0.23%.

Question: And the viability, T/C (second compound 10 µM, first compound 0.316 µM)?
Answer: Its viability, T/C is 0.27%.

Question: And the viability, T/C (second compound 10 µM, first compound 1 µM)?
Answer: The viability, T/C was 0.22%.

Question: And the viability, T/C (second compound 10 µM, first compound 3.16 µM)?
Answer: The viability, T/C was 0.24%.

Question: What about the viability, T/C (second compound 10 µM, first compound 10 µM) of the same compound?
Answer: The viability, T/C was 1.53%.
